The conditions of series [1]: cited from earlier work.
For series [2], the system named is red blood cells. The series can be described thus: Hemolytic activity assay (hemoglobin release from red blood cells). Type of series: cell-based. The procedure: FIG. 7 provides hemolytic activity for Cytochrome C, OA, SD, HIP CytC OA, and HIP CytC SD at 37° C. and 4° C. to show the influence of membrane stiffness on membrane interaction, in accordance with some embodiments of the present disclosure. 20 μM CytC was given to each group and the concentration of counterion given was consistent with the charge ratios used for delivery experiments. Washed red blood cells were diluted to 0.5% v/v in PBS and 1% v/v Triton X-100 was used as the positive control.
Washed red blood cells (RBC's) were diluted to a 5% v/v concentration in PBS. 100 μL of nanoparticles or treatment were incubated with 10 μL RBC's at 37° C. for 1 hour in a 96 well plate. After incubation with HIP treatment groups, the microplate reader was used to measure released hemoglobin from membrane disruption using 541 nm and subtracting background at 561 nm, then normalizing hemolytic activity to 5% Triton X-100. For imaging RBC's and NIH3T3/eGFP cells, an epifluorescent microscope (Zeiss Axio Observer Z1) with an 40× lens. […]

Series [3] can be described thus: Dynamic light scattering: z-average size and polydispersity of HIP complexes. The note with it: DLS. Type of series: physicochemical. Here is the method: Size and zeta potential were measured using dynamic light scattering (DLS) using Malvern Instruments Zetasizer NanoZS intensity mode with a 4 mW He—Ne laser with 633 nm wavelength to detect backscattering) (173° using 1× for DLS or 0.1× PBS for zeta potential at pH 7.4 solvent conditions and protein material selection. Z-average values were used for HIP complex size. Electrophoretic mobility was converted to zeta potential using the Smoluchowski approximation. Imaging of solutions was performed using an epifluorescence microscope (Zeiss Axio Observer Z1) using a 100× oil immersion lens. Transmission electron microscopy (TEM) grids were prepared using 10 μL sample on copper grids, letting the sample adhere for 5 minutes, washing in water for 30 seconds, staining with 1% phosphotungstic acid for 10 seconds, washing again for 30 seconds, and drying overnight. A JEOL 100 CX-II TEM was utilized to visualize samples.

Regarding `c1ccc(CCNCc2ccccc2)cc1` [benethamine, N-benzyl-2-phenylthanamine], in series [1], the Log P – broadly, a log measure of how a compound divides between an organic and an aqueous phase – was 3.6.

On to `CCCCC(CC)COC(=O)CC(C(=O)OCC(CC)CCCC)S(=O)(=O)[O-].[Na+]` (stereo not drawn) [sodium docusate, reference compound], for which the “Log P” value in series [1] is given as 5.2. The “hemolytic activity at reduced temperature” value in series [2] (4° C. compared with 37° C.) is on record as “remained high”.

Regarding “CytC: 12.4 kDa positively charged protein; induces apoptosis upon delivery to the mitochondrial membrane”, in series [3], the “polydispersity index (PDI)” value came out at 0.542±0.17. Besides, in series [3] (1× PBS pH 7.4), the z-average hydrodynamic diameter came to 729±460 nm. The relative hemolytic activity result in series [2] (37° C., same concentration as in HIP CytC complexes) was “greater than 100%”.

Values taken from patent US20260232758A1, “Low Cost Efficient Intracellular Delivery of Proteins and Nucleic Acids via Hydrophobic Ion Pairing” (Georgia Tech Research Corporation, priority 2023, published 2026).
